“And” between values parts separate entries of the source, which are not always exact repeats. Identical values can stand only once. Each block holds one sequence with its values, some of them ahead of it.
Molecular target: T1, MyD88^TIR (Homo sapiens, UniProt Q99836)
T1 construct: MyD88 (residues 148–296); 6xHis; made in house; host or cells: E. coli BL21 (DE3)
Assay: T‐Surf phage library (P8 and P3) selection against MyD88^TIR, four rounds, NGS read counts
Format: binding
Settings: for P8_MyD88 Rank (after) / P8_MyD88 Rank (before): P8 library; for Population: 4th round of selection against MyD88 TIR, share of NGS reads; for P3_MyD88 Rank (after) / P3_MyD88 Rank (before): P3 library
Procedure, shortened: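 Four panning rounds on TIR domain adsorbed at 5 µg mL^−1; binding 1 h at 20–22 °C, elution with 100 mM HCl. Output: NGS read counts of round‐4 pools versus naïve library.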

[1] = P3_MyD88: rank by count after grouping
[2] = P3_MyD88: rank by count before grouping
[3] = selection against MyD88, rank after grouping
[4] = selection against MyD88, rank before grouping
[5] = P3_MyD88 pool: P3 T-Surf phage library
[6] = 4R selection against MyD88, rank after grouping
[7] = 4R selection against MyD88, rank before grouping
[8] = P8_MyD88: rank by count after grouping
[9] = P8_MyD88: rank by count before grouping
[10] = selection against MyD88 TIR, rank by count after grouping
[11] = selection against MyD88 TIR, rank by count before grouping
[12] = P8_MyD88 pool: P8 T-Surf phage library
[13] = selection against MyD88, rank by count after grouping
[14] = selection against MyD88, rank by count before grouping
[15] = P8_MyD88: rank by NGS read count after grouping
[16] = P8_MyD88: rank by NGS read count before grouping

T1 sequence (Q99836 148-296): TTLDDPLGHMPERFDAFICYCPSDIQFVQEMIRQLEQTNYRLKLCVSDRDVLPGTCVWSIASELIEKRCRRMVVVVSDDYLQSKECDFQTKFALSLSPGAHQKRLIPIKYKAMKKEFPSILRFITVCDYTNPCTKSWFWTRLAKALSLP

Sequence: NGHESEIIKEIVDTM
Rank (after) [1]: 436 | Rank (before) [2]: 3365

Sequence: LGYHGIDWVYFGGIED
P8_MyD88 Rank (after) [3]: 565 | P8_MyD88 Rank (before) [4]: 3316

Sequence: LGYHWIDWEYFVGIEDPIT
P8_MyD88 Rank (after) [6]: 660 | P8_MyD88 Rank (before) [7]: 3261

Sequence: YAFTGHLHRYLVQPGESVC
Rank (after) [1]: 456 | Rank (before) [2]: 1515

Sequence: VANILGCHWIDWECFV
Rank (after) [8]: 464 | Rank (before) [9]: 2165

Sequence: YALTCHLHRYLVQRGV
P3_MyD88 Rank (after) [10]: 204 | P3_MyD88 Rank (before) [11]: 1552

Sequence: DHHLDLPWGKAKKPEILG
P3_MyD88 Rank (after) [3]: 487 | P3_MyD88 Rank (before) [4]: 1999

Sequence: CALCELLQILHARGLF
P8_MyD88 Rank (after) [13]: 725 | P8_MyD88 Rank (before) [14]: 1345

Sequence: DPQVLERKYERLVKLV
P8_MyD88 Rank (after) [13]: 718 | P8_MyD88 Rank (before) [14]: 2650

Sequence: LKVESWRQALDELVL
P3_MyD88 Rank (after) [10]: 261 | P3_MyD88 Rank (before) [11]: 1077

Sequence: AVDKETDKIQTPLKAQ
Rank (after) [1]: 390 | Rank (before) [2]: 1919

Sequence: QYSGTPLAHTSKFPDE
P3_MyD88 Rank (after) [6]: 605 | P3_MyD88 Rank (before) [7]: 2832

Sequence: EAFAVHVWSSKANSLVG
P3_MyD88 Rank (after) [13]: 727 | P3_MyD88 Rank (before) [14]: 2193

Sequence: DPQDLEWNFERPVSLF
Rank (after) [15]: 972 | Rank (before) [16]: 2856

Sequence: WALGELLQILQARERC
Rank (after) [15]: 943 | Rank (before) [16]: 1408

Sequence: LVAHRFSKKMKIFATM
P3_MyD88 Rank (after) [6]: 621 | P3_MyD88 Rank (before) [7]: 2315

Sequence: DPKDLQWFYERLVSLF
Rank (after) [15]: 1027 | Rank (before) [16]: 3043

Sequence: RFWERLRYMIPEVSHQ
P3_MyD88 Rank (after) [6]: 598 | P3_MyD88 Rank (before) [7]: 2545

Sequence: RYIMPHPQELIQQKQP
P3_MyD88 Rank (after) [10]: 249 | P3_MyD88 Rank (before) [11]: 2561

Sequence: DWVWDYLLPNGRPSG
Rank (after) [15]: 987 | Rank (before) [16]: 2420

Sequence: LKVESWRQALEKAGN
Rank (after) [1]: 126 | Rank (before) [2]: 1081

Sequence: SSFREGVWRLLEVSKK
Rank (after) [1]: 151 | Rank (before) [2]: 3148

Sequence: DPQTLQSFYERLVSLI
P8_MyD88 Rank (after) [3]: 557 | P8_MyD88 Rank (before) [4]: 3027

Sequence: YLRADDSWFWEKLLQIA
P8_MyD88 Rank (after) [3]: 553 | P8_MyD88 Rank (before) [4]: 2056

Sequence: LKWGDERFWERLVYVM
P8_MyD88 Rank (after) [10]: 191 | P8_MyD88 Rank (before) [11]: 250

Sequence: WALDELLQILHARRTE
P8_MyD88 Rank (after) [13]: 702 | P8_MyD88 Rank (before) [14]: 1457

Sequence: QLIQQWIELHLHQLHL
P3_MyD88 Rank (after) [3]: 499 | P3_MyD88 Rank (before) [4]: 2880

Sequence: DPQDLDRSYERLVSLC
P8_MyD88 Rank (after) [6]: 670 | P8_MyD88 Rank (before) [7]: 2842

Sequence: DLLLCVFQTFFARLTE
Rank (after) [15]: 948 | Rank (before) [16]: 2592

Sequence: YASSSWELDELLRIPY
Rank (after) [15]: 966 | Rank (before) [16]: 1904

Sequence: DPQDLDWFYERQVSLL
Rank (after) [8]: 106 | Rank (before) [9]: 568

Sequence: YASSSWALEELVKIMEAM
Rank (after) [8]: 454 | Rank (before) [9]: 1898

Sequence: GSFREILLRLLDLSKK
P3_MyD88 Rank (after) [6]: 671 | P3_MyD88 Rank (before) [7]: 1858

Sequence: DPQDLAWFYASQSSQM
P8_MyD88 Rank (after) [3]: 500 | P8_MyD88 Rank (before) [4]: 2997

Sequence: WALEELRLIMELHSV
P8_MyD88 Rank (after) [3]: 504 | P8_MyD88 Rank (before) [4]: 1525

Sequence: ELDFSHFWLFDGDAGEEP
P8_MyD88 Rank (after) [10]: 229 | P8_MyD88 Rank (before) [11]: 476

Sequence: NFVEYFVYQMMPDILE
Rank (after) [8]: 153 | Rank (before) [9]: 167 | Population [12]: 0.00886%

Sequence: DPQELVWRYERLVSLF
Rank (after) [15]: 962 | Rank (before) [16]: 3010

Sequence: SSFRERLWRLLELIKK
P3_MyD88 Rank (after) [6]: 644 | P3_MyD88 Rank (before) [7]: 3246

Sequence: DLLVLEWFYERVFSQM
P8_MyD88 Rank (after) [13]: 713 | P8_MyD88 Rank (before) [14]: 2590

Sequence: KEREFGAQRAGKWRAA
P3_MyD88 Rank (after) [6]: 670 | P3_MyD88 Rank (before) [7]: 3663

Sequence: HSEWACHELYFSHFWP
P3_MyD88 Rank (after) [3]: 551 | P3_MyD88 Rank (before) [4]: 2827

Sequence: WGQAVTEDLWGWLFNP
Rank (after) [8]: 176 | Rank (before) [9]: 201

Sequence: PQDLQWFYERLVSLI
Rank (after) [8]: 150 | Rank (before) [9]: 186 | Population [12]: 0.00694%

Sequence: SSFREGLWRLLELGKK
Population [5]: 0.00437%

Sequence: DPQDLDWFYERLVAC
Rank (after) [15]: 1005 | Rank (before) [16]: 2779

Sequence: GEDTLYTFTGHLQATL
P3_MyD88 Rank (after) [13]: 719 | P3_MyD88 Rank (before) [14]: 1830

Sequence: NQWRNALTAAANLSGW
Population [5]: 0.00437% and 0.00378% and 0.0032% | P8_MyD88 Rank (after) [13]: 734 | P8_MyD88 Rank (before) [14]: 3881

Sequence: DLYDILYLYGRHTIFV
Rank (after) [15]: 881 | Rank (before) [16]: 2584

Sequence: LFWDRLLYSLHVTE
P8_MyD88 Rank (after) [3]: 569 | P8_MyD88 Rank (before) [4]: 3208

Sequence: VQWDDSWFWEKLLYA
Rank (after) [15]: 1018 | Rank (before) [16]: 2248

Sequence: DHHLDLPRGKAIKPEILS
Population [5]: 0.0032%

Sequence: WRTALTKVGNMLGWIS
Rank (after) [8]: 430 | Rank (before) [9]: 897

Sequence: YLRADDLVLGKTAVC
P8_MyD88 Rank (after) [6]: 643 | P8_MyD88 Rank (before) [7]: 2038

Sequence: YASYDDNYYYWVTHVLLRRL
Rank (after) [15]: 969 | Rank (before) [16]: 1775

Sequence: LEYRWIDWEYFVGLED
Rank (after) [15]: 886 | Rank (before) [16]: 3357

Results, then the sequence that gave them:

P8_MyD88 Rank (after) [3]: 491 | P8_MyD88 Rank (before) [4]: 2075
Sequence: YLRLEVIWFWENRRYA

Population [5]: 0.00349%
Sequence: KDVEGWRDALTKVASL

Rank (after) [1]: 101 | Rank (before) [2]: 402
Sequence: SSFREGLWRLPELLR

P3_MyD88 Rank (after) [3]: 556 | P3_MyD88 Rank (before) [4]: 1436
Sequence: YYLDHSHPRKQNGEFG

Rank (after) [8]: 97 | Rank (before) [9]: 101 | Population [12]: 0.0231%
Sequence: SMTPLSDFWKELALVL

P3_MyD88 Rank (after) [6]: 663 | P3_MyD88 Rank (before) [7]: 3520
Sequence: NQWRNALTEAAHLSGW

Population [5]: 0.00262%
Sequence: AVAHEISKKMKIFATI

P8_MyD88 Rank (after) [13]: 749 | P8_MyD88 Rank (before) [14]: 1673
Sequence: YYDSRWALDELWLILEQR

P8_MyD88 Rank (after) [10]: 267 | P8_MyD88 Rank (before) [11]: 2763
Sequence: DPQDLDWFYERLFTQM

Population [12]: 0.0224%
Sequence: ELDFSHFWLFEARGDA

Rank (after) [8]: 405 | Rank (before) [9]: 2994
Sequence: DPQELEGVYERLVSLF

P8_MyD88 Rank (after) [3]: 555 | P8_MyD88 Rank (before) [4]: 1569
Sequence: WDFCEQYGTVLGSSVL

P3_MyD88 Rank (after) [13]: 681 | P3_MyD88 Rank (before) [14]: 2284
Sequence: LVAHEISKMLKIFETI

Population [5]: 0.0032%
Sequence: SSFREGLCRLLELSKK

P3_MyD88 Rank (after) [6]: 635 | P3_MyD88 Rank (before) [7]: 2700
Sequence: PENDNGGENAFINHIV

P8_MyD88 Rank (after) [10]: 235 | P8_MyD88 Rank (before) [11]: 599
Sequence: LGYHWIDWEYFVALK

Rank (after) [8]: 465 | Rank (before) [9]: 2370
Sequence: DFRSHLIETFGRMFIN

P3_MyD88 Rank (after) [6]: 653 | P3_MyD88 Rank (before) [7]: 3323
Sequence: TSHLHHAPRPNEIETL

P3_MyD88 Rank (after) [10]: 260 | P3_MyD88 Rank (before) [11]: 3787
Sequence: KNLSNELVSKNILTFM

P8_MyD88 Rank (after) [10]: 231 | P8_MyD88 Rank (before) [11]: 409
Sequence: LGYHWIDWSILWALK

P8_MyD88 Rank (after) [6]: 585 | P8_MyD88 Rank (before) [7]: 3020
Sequence: DPQEQVGICVRLMEAL

P3_MyD88 Rank (after) [3]: 547 | P3_MyD88 Rank (before) [4]: 2710
Sequence: PEKDNGGEIAFINNLV

P8_MyD88 Rank (after) [6]: 664 | P8_MyD88 Rank (before) [7]: 2134
Sequence: YNLAQYLHVSLMARGI

Rank (after) [1]: 189 | Rank (before) [2]: 1615
Sequence: YHPLDLPRGKAIKPEILG

Rank (after) [8]: 138 | Rank (before) [9]: 149 | Population [12]: 0.0108%
Sequence: YASSIWALNELIRILE
